The values that follow come from US11066421B1, “Synthetic cinchona alkaloids against cancer” (Ares Pharmaceuticals, LLC, priority 2021, dated 2021).

Entries after “also recorded” stand apart in the source; their conditions may differ.

One test relates to PC-3. In words: Confocal laser scanning microscopy apoptosis, PC-3. The class given is cell-based, human. The conditions noted are these: 100 nM, 48 hours. How it is done:
Confocal Laser Scanning Microscopy. Cells were treated with cinchona alkaloids or PBS in culture medium for 48 hours. After 48 hr of culture, cells were co-stained with a rabbit polyclonal antitubulin antibody (Green Fluorescence) and the DNA-specific dye Toto-3 (Blue Fluorescence) and examined by laser scanning confocal microscopy using a Bio-Rad MRC-1024 Laser Scanning Confocal Microscope equipped with a Kr/Ar laser (Bio-Rad, Hercules, Calif., USA) mounted on a Nikon Eclipse E800 upright microscope with high numerical aperture objectives (Nikon, Melville, N.Y., USA), as described (F. M. Uckun, et al., 2010, Proc. Natl. Acad. Sci. USA, 107: 2902-7; F. M. Uckun., et al., 2010, British Journal of Haematology, 149: 508-17; F. M. Uckun, et al., 2013, Blood. 121:4348-54; F. M. Uckun et al., 2010, Proc. Natl Acad. Sci. USA 107:16852-57; F. M. Uckun et al., 2012, Proc. Natl Acad. Sci. USA 109:18072-77). Cell lines. BT-20 (ATCC HTB-19), a triple negative breast cancer cell line, PC-3 (ATCC CRL-1435) a CRPC cell line (small cell endocrine carcinoma) derived from a Stage IV prostate cancer patient with bone metastases were obtained from American Type Culture Collection (ATCC) (Manassas, Va.). […] Cells were washed in PBS and counterstained with the DNA-specific dye TOTO-3 (blue fluorescence) (Molecular Probes Inc., Eugene, Oreg.) for 10 min at a dilution of 1:1000. […]

A further test deals with U87 human GBM cells. In words: CB.17 SCID mouse xenograft model of human glioblastoma multiforme. The conditions noted are these: 5 days per week for 4 weeks. The format is in vivo. As to the method: Cell Lines. Human brain tumor cell line U87 (ATCC HTB-14) was obtained from American Type Culture Collection (Rockville, Md.) and maintained as a continuous cell line in DMEM supplemented with 10% fetal calf serum (FCS), 4 mm glutamine, 100 units/ml penicillin G, and […] streptomycin sulfate. All of the tissue culture reagents were obtained from Life Technologies, Inc. Inc. (Gaithersburg, Md.).
Mice. Female CB.17 SCID mice were obtained from Taconic (Germantown, N.Y.) and housed in a specific-pathogen-free room located in a secure indoor facility with controlled temperature, humidity, and noise levels. Mice were housed in micro-isolator cages and fed with autoclaved rodent chow. Water was also autoclaved and supplemented with trimethoprim/sulfomethoxazol 3 days a week. The animal protocol used in this study was approved by the local Institutional Animal Care and Use Committee (IACUC), and all of the animal care procedures conformed to the Guide for the Care and Use of Laboratory Animals (National Research Council, National Academy Press, Washington D.C. 1996).
SCID Mouse Xenograft Model of Human Glioblastoma Multiforme (GBM). The predictive value of the mouse xenograft models for clinical effectiveness of anti-cancer drugs has been confirmed for several drugs (Richmond A, Su. Y. Mouse xenograft models vs GEM models for human cancer therapeutics. Dis Model Mech. 2008; 1(2-3):78-82. doi:10.1242/dmm.000976). CB.17 SCID mice (8 wk. old, female) were inoculated subcutaneously with 1×10^6 U87 human GBM cells (1×10^6/inoculum, volume: 200 μL) in the right hind leg, as described (R. K. Narla et al., 2001, Clin Cancer Res. 7:2124-33). Mice were treated daily with intraperitoneal injections of vehicle (50 μL DMSO) or AP-1 (125 μg˜5 mg/kg/day in 50 μL DMSO) according to a 5 days on 2 days off schedule for 4 consecutive weeks. Tumor growth was determined by the measurement of visible tumors with a caliper in three dimensions three days a week and expressed as tumor volume in cubic millimeters (mm^3). Tumor volumes were calculated using the formula for the volume of a prolate spheroid, V=4/3×3.14×length/2×width/2×depth/2.

For “2,4,6-Tri (9-O-dihydrocinchoninyl)pyrimidine [AP-5]”, the “signs of apoptosis by confocal imaging” value in the test with PC-3 is “virtually all of the BT-20 or PC-3 cells treated with AP-5 showed signs of advanced apoptosis; also recorded: virtually all of the PC-3 cells treated with AP-5 showed signs of advanced apoptosis”.

Turning to `C=CC1CN2CCC1CC2C(Oc1cc(OC(c2ccnc3ccccc23)C2CC3CCN2CC3C=C)nc(OC(c2ccnc3ccccc23)C2CC3CCN2CC3C=C)n1)c1ccnc2ccccc12` (centres unmarked) [AP-1, 2,4,6-Tri(9-O-cinchoninyl)pyrimidine], in the test with U87 human GBM cells (5 mg/kg/dose i.p. daily), the tumor progression entry is “significantly slowed down the tumor progression”. Besides, the average tumor size came to 4.1±1.1 mm^3 in the test with U87 human GBM cells (day 15, 5 mg/kg/day i.p.) and 37.8±16.2 mm^3 in the test with U87 human GBM cells (day 30, 5 mg/kg/day i.p.). In the test on U87 human GBM cells (day 44, 5 mg/kg/day i.p.), the tumor size was 956.0±291.3 mm^3.
